What was measured:
wheat = assay: Test B pre/postemergence wheat; assay type: in vivo, Triticum aestivum
Procedure, shortened: (§1)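 Response is a visual 0-to-10 score relative to untreated plants, where 0 means no effect and 10 means complete control, taken twelve to sixteen days after application. Treatments went onto soil at planting and onto foliage of 1- to 4-leaf plants, using a surfactant-containing non-phytotoxic solvent.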

purple nutsedge = assay: Test B pre/postemergence purple nutsedge; assay type: in vivo, Cyperus rotundus
Procedure, shortened: as §1

morningglory = assay: Test B pre/postemergence morningglory; assay type: in vivo, Ipomoea hederacea
Procedure, shortened: as §1

surinam grass = assay: Test B pre/postemergence surinam grass; assay type: in vivo, Brachiaria decumbens
Procedure, shortened: as §1

pigweed = assay: Test B pre/postemergence pigweed; assay type: in vivo, Amaranthus retroflexus
Procedure, shortened: as §1

wild oat = assay: Test B pre/postemergence wild oat; assay type: in vivo, Avena fatua
Procedure, shortened: as §1

bamyardgrass = assay: Test B flood test barnyardgrass; assay type: in vivo, Echinochloa crus-galli
Procedure, shortened: (§2)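 Plants were grown to the 2-leaf stage before treatment with test chemical, then held in a greenhouse for twelve to sixteen days. Injury was visually rated against untreated controls on a 0–10 scale, where 0 is no effect and 10 is complete control.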

smallflower flatsedge = assay: Test B flood test smallflower flatsedge; assay type: in vivo, Cyperus difformis
Procedure, shortened: as §2

bedstraw = assay: Test B pre/postemergence bedstraw; assay type: in vivo, Galium aparine
Procedure, shortened: as §1

duck salad = assay: Test B flood test duck salad; assay type: in vivo, Heteranthera limosa
Procedure, shortened: as §2

blackgrass = assay: Test B pre/postemergence blackgrass; assay type: in vivo, Alopecurus myosuroides
Procedure, shortened: as §1

rape = assay: Test B pre/postemergence rape; assay type: in vivo, Brassica napus
Procedure, shortened: as §1

cocklebur = assay: Test B pre/postemergence cocklebur; assay type: in vivo, Xanthium strumarium
Procedure, shortened: as §1

sugar beet = assay: Test B pre/postemergence sugar beet; assay type: in vivo, Beta vulgaris
Procedure, shortened: as §1

soybean = assay: Test B pre/postemergence soybean; assay type: in vivo, Glycine max
Procedure, shortened: as §1

giant foxtail = assay: Test B pre/postemergence giant foxtail; assay type: in vivo, Setaria faberii
Procedure, shortened: as §1

[1] = Preemergence, Rate 62 g/ha, scale of 0 to 10 where 0 is no effect and 10 is complete control
[2] = Preemergence, Rate 250 g/ha, scale 0 to 10, 0 is no effect, 10 is complete control
[3] = Preemergence, Rate 500 g/ha, scale 0 to 10 (0 no effect, 10 complete control)
[4] = Rate 125 g/ha, Postemergence, scale 0 to 10
[5] = Rate 62 g/ha, Postemergence, scale of 0 to 10 where 0 is no effect and 10 is complete control
[6] = Rate 500 g/ha, Postemergence, scale 0 to 10
[7] = Preemergence, Rate 125 g/ha, 0 is no effect, 10 is complete control
[8] = Rate 62 g/ha, headed Pre-emergence (flood test species), scale 0 to 10 (0 no effect, 10 complete control)
[9] = Rate 125 g/ha, Pre-emergence, flood test species, scale 0 to 10 where 0 is no effect and 10 is complete control
[10] = Rate 250 g/ha, Pre-emergence, flood-test species, scale 0 to 10, 0 is no effect, 10 is complete control
[11] = Rate 500 g/ha, headed Pre-emergence (flood test species), scale 0 to 10 (0 no effect, 10 complete control)

## Cc1ccccc1-n1c(=O)on(C(=O)N(c2ccc(Cl)cc2Cl)C(C)C)c1=O [Compound 185]
wheat; [1]
  Wheat plant response rating: 0
wheat; [2]
  Wheat plant response rating: 0
wheat; [3]
  Wheat plant response rating: 0
wheat; [4]
  Wheat plant response rating: 0
wheat; Rate 250 g/ha, Postemergence
  Plant response rating (0 to 10; 0 is no effect, 10 is complete control), Wheat: 0
Purple nutsedge; [2]
  Nutsedge plant response rating: 0
Purple nutsedge; [3]
  Nutsedge plant response rating: 0
Purple nutsedge; [5]
  Nutsedge plant response rating: 0
Purple nutsedge; [4]
  Nutsedge plant response rating: 0
Purple nutsedge; Rate 250 g/ha, Postemergence
  Plant response rating (0 to 10; 0 is no effect, 10 is complete control), Nutsedge: 0
Purple nutsedge; [6]
  Nutsedge plant response rating: 0
morningglory; [1]
  Morningglory plant response rating: 0
morningglory; [7]
  Morningglory plant response rating (0 to 10 scale): 0
morningglory; [2]
  Morningglory plant response rating: 0
morningglory; [3]
  Morningglory plant response rating: 0
morningglory; [5]
  Morningglory plant response rating: 1
morningglory; [4]
  Morningglory plant response rating: 1
morningglory; Rate 250 g/ha, Postemergence
  Plant response rating (0 to 10; 0 is no effect, 10 is complete control), Morningglory: 1
morningglory; [6]
  Morningglory plant response rating: 2
Surinam grass; [1]
  B. signalgrass plant response rating: 0
Surinam grass; [7]
  B. signalgrass plant response rating (0 to 10 scale): 0
Surinam grass; [2]
  B. signalgrass plant response rating: 0
Surinam grass; [3]
  B. signalgrass plant response rating: 0
Surinam grass; [5]
  B. signalgrass plant response rating: 0
Surinam grass; Rate 125 g/ha, Postemergence, scale 0 (no effect) to 10 (complete control)
  B. signalgrass plant response rating: 0
Surinam grass; Rate 250 g/ha, Postemergence, scale 0 to 10, 0 is no effect, 10 is complete control
  Plant response rating, B. signalgrass: 0
Surinam grass; Rate 500 g/ha, Postemergence, scale 0 to 10, 0 no effect, 10 complete control
  B. signalgrass plant response rating: 0
pigweed; [1]
  Redroot pigweed plant response rating: 0
pigweed; [7]
  Redroot pigweed plant response rating (0 to 10 scale): 0
pigweed; [2]
  Redroot pigweed plant response rating: 0
pigweed; [3]
  Redroot pigweed plant response rating: 0
pigweed; [5]
  Redroot pigweed plant response rating: 0
pigweed; [4]
  Redroot pigweed plant response rating: 1
pigweed; Rate 250 g/ha, Postemergence
  Plant response rating (0 to 10; 0 is no effect, 10 is complete control), Redroot pigweed: 3
pigweed; [6]
  Redroot pigweed plant response rating: 4
Wild oat; [1]
  Wild oats plant response rating: 0
Wild oat; [2]
  Wild oats plant response rating: 0
Wild oat; [3]
  Wild oats plant response rating: 0
Wild oat; [4]
  Wild oats plant response rating: 0
Wild oat; Rate 250 g/ha, Postemergence
  Plant response rating (0 to 10; 0 is no effect, 10 is complete control), Wild oats: 0
bamyardgrass; [8]
  Barnyardgrass plant response rating: 0
bamyardgrass; [9]
  Barnyardgrass plant response rating: 0
bamyardgrass; [10]
  Barnyardgrass plant response rating: 0
bamyardgrass; [11]
  Plant response rating, Barnyardgrass: 0
Smallflower flatsedge; [8]
  S. Flatsedge plant response rating: 0
Smallflower flatsedge; [9]
  S. Flatsedge plant response rating: 0
Smallflower flatsedge; [10]
  S. Flatsedge plant response rating: 0
Smallflower flatsedge; Rate 500 g/ha, Pre-emergence, flood test species, scale 0 to 10 (0 no effect, 10 complete control)
  S. Flatsedge plant response rating: 0
bedstraw; [1]
  Bedstraw plant response rating: 0
bedstraw; [7]
  Bedstraw plant response rating (0 to 10 scale): 0
bedstraw; [2]
  Bedstraw plant response rating: 0
bedstraw; [3]
  Bedstraw plant response rating: 0
bedstraw; [5]
  Bedstraw plant response rating: 0
bedstraw; [4]
  Bedstraw plant response rating: 0
bedstraw; Rate 250 g/ha, Postemergence
  Plant response rating (0 to 10; 0 is no effect, 10 is complete control), Bedstraw: 3
bedstraw; [6]
  Bedstraw plant response rating: 3
Duck salad; [8]
  Ducksalad plant response rating: 0
Duck salad; [9]
  Ducksalad plant response rating: 0
Duck salad; [10]
  Ducksalad plant response rating: 0
Duck salad; [11]
  Plant response rating, Ducksalad: 0
blackgrass; [1]
  Blackgrass plant response rating: 0
blackgrass; [7]
  Blackgrass plant response rating (0 to 10 scale): 0
blackgrass; [2]
  Blackgrass plant response rating: 0
blackgrass; [3]
  Blackgrass plant response rating: 0
blackgrass; [5]
  Blackgrass plant response rating: 0
blackgrass; [4]
  Blackgrass plant response rating: 0
blackgrass; Rate 250 g/ha, Postemergence
  Plant response rating (0 to 10; 0 is no effect, 10 is complete control), Blackgrass: 0
blackgrass; [6]
  Blackgrass plant response rating: 0
rape; [1]
  Rape plant response rating: 0
rape; [7]
  Rape plant response rating (0 to 10 scale): 0
rape; [2]
  Rape plant response rating: 0
rape; [3]
  Rape plant response rating: 0
rape; [5]
  Rape plant response rating: 0
rape; [4]
  Rape plant response rating: 0
rape; Rate 250 g/ha, Postemergence
  Plant response rating (0 to 10; 0 is no effect, 10 is complete control), Rape: 0
rape; [6]
  Rape plant response rating: 0
cocklebur; [7]
  Cocklebur plant response rating (0 to 10 scale): 0
cocklebur; [2]
  Cocklebur plant response rating: 0
cocklebur; [5]
  Cocklebur plant response rating: 0
cocklebur; [4]
  Cocklebur plant response rating: 0
cocklebur; Rate 250 g/ha, Postemergence
  Plant response rating (0 to 10; 0 is no effect, 10 is complete control), Cocklebur: 0
cocklebur; [6]
  Cocklebur plant response rating: 2
Sugar beet; [1]
  Sugarbeets plant response rating: 0
Sugar beet; [7]
  Sugarbeets plant response rating (0 to 10 scale): 0
Sugar beet; [2]
  Sugarbeets plant response rating: 0
Sugar beet; [3]
  Sugarbeets plant response rating: 0
Sugar beet; [5]
  Sugarbeets plant response rating: 0
Sugar beet; [4]
  Sugarbeets plant response rating: 0
Sugar beet; Rate 250 g/ha, Postemergence
  Plant response rating (0 to 10; 0 is no effect, 10 is complete control), Sugarbeets: 0
Sugar beet; [6]
  Sugarbeets plant response rating: 0
soybean; [1]
  Soybean plant response rating: 0
soybean; [7]
  Soybean plant response rating (0 to 10 scale): 0
soybean; [2]
  Soybean plant response rating: 0
soybean; [3]
  Soybean plant response rating: 0
soybean; [5]
  Soybean plant response rating: 2
soybean; [4]
  Soybean plant response rating: 2
soybean; Rate 250 g/ha, Postemergence
  Plant response rating (0 to 10; 0 is no effect, 10 is complete control), Soybean: 3
soybean; [6]
  Soybean plant response rating: 3
Giant foxtail; [1]
  Giant foxtail plant response rating: 0
Giant foxtail; [7]
  Giant foxtail plant response rating (0 to 10 scale): 5
Giant foxtail; [2]
  Giant foxtail plant response rating: 9
Giant foxtail; [3]
  Giant foxtail plant response rating: 9
Giant foxtail; [5]
  Giant foxtail plant response rating: 0
Giant foxtail; [4]
  Giant foxtail plant response rating: 0
Giant foxtail; Rate 250 g/ha, Postemergence
  Plant response rating (0 to 10; 0 is no effect, 10 is complete control), Giant foxtail: 0
Giant foxtail; [6]
  Giant foxtail plant response rating: 1

From patent US6737383B1, “Herbicidal oxadiazolidines” (priority 1999, dated 2004)
